Assay results as given in patent publication EP0908457B1, “3-(1,2-benzisothiazol- and isoxazol-5-Y1)-2,4(1H,3H)-pyrimidinedione or thione and 3-(1,2-benzisothiazol- and isoxazol-5-y1)-4(3H)-pyrimidinone or thione herbicidal agents” (BASF AKTIENGESELLSCHAFT, priority 1997, dated 1999).

Legend:
Sagittaria pygmaea, L. = assay: Preemergence weed control under flooded paddy conditions, SAGPY (Arrowhead (Pygmaea)); type: in vivo; settings: flooded paddy; for SAGPY: herbicidal effect rating 0-9, three to four weeks after treatment; for herbicidal effect rating, SAGPY: meaning of each grade not given here
[1] = system: Oryza sativa, (L.) Tebonnet; assay: Rice tolerance to post-transplant applications under flooded paddy conditions (Example 187), ORYSAT (Rice, Tebonnet); settings: for ORYSAT: herbicidal effect rating 0-9, three to four weeks after treatment; for herbicidal effect rating ORYSAT: meaning of each grade not given here
[2] = system: Monochoria vaginalis, Presl.; assay: Preemergence weed control under flooded paddy conditions, MOOVA (Monochoria); type: in vivo; settings: flooded paddy; for MOOVA: herbicidal effect rating 0-9, three to four weeks after treatment; for herbicidal effect rating, MOOVA: meaning of each grade not given here
[3] = system: Echinochloa oryzoides (Ard.) Fritsch.; assay: Preemergence weed control under flooded paddy conditions, ECHORC (Watergrass (Calif.)); type: in vivo; settings: flooded paddy; for ECHORC: herbicidal effect rating 0-9, three to four weeks after treatment; for herbicidal effect rating, ECHORC: meaning of each grade not given here
Cyperus iria = assay: Preemergence weed control under flooded paddy conditions, CYPIR (Rice Flatsedge); type: in vivo; settings: flooded paddy; for CYPIR: herbicidal effect rating 0-9, three to four weeks after treatment; for herbicidal effect rating, CYPIR: meaning of each grade not given here
[4] = system: Cyperus serotinus, Rottb.; assay: Preemergence weed control under flooded paddy conditions, CYPSE (Flatsedge); type: in vivo; settings: for CYPSE: herbicidal effect rating 0-9, three to four weeks after treatment; for herbicidal effect rating, CYPSE: meaning of each grade not given here
[5] = 0.0320 kg/ha, preemergence, rated three to four weeks after treatment
[6] = 0.0620 kg/ha, preemergence, rated three to four weeks after treatment
[7] = 0.1250 kg/ha, preemergence, rated three to four weeks after treatment
[8] = 0.2500 kg/ha, preemergence, rated three to four weeks after treatment
[9] = Rate 0.0320 kg/ha, preemergence, rated three to four weeks after treatment
[10] = Rate 0.0620 kg/ha, preemergence, rated three to four weeks after treatment
[11] = Rate 0.1250 kg/ha, preemergence, rated three to four weeks after treatment
[12] = Rate 0.2500 kg/ha, preemergence, rated three to four weeks after treatment
[13] = Rate 0.0320 kg/ha, rated three to four weeks after treatment
[14] = Rate 0.0620 kg/ha, rated three to four weeks after treatment
[15] = Rate 0.1250 kg/ha, rated three to four weeks after treatment
[16] = Rate 0.2500 kg/ha, rated three to four weeks after treatment
[17] = Rate 0.0320 kg/ha, preemergence weeds, rated three to four weeks after treatment
[18] = Rate 0.0620 kg/ha, preemergence weeds, rated three to four weeks after treatment
[19] = Rate 0.1250 kg/ha, preemergence weeds, rated three to four weeks after treatment
[20] = Rate 0.2500 kg/ha, preemergence weeds, rated three to four weeks after treatment
[21] = 0.0320 kg/ha, preemergence weeds
[22] = 0.0620 kg/ha, preemergence weeds
[23] = 0.1250 kg/ha, preemergence weeds
[24] = 0.2500 kg/ha, preemergence weeds
[25] = Rate 0.0320 kg/ha, preemergence, rated 3-4 weeks after treatment
[26] = Rate 0.0620 kg/ha, preemergence, rated 3-4 weeks after treatment
[27] = Rate 0.1250 kg/ha, preemergence, rated 3-4 weeks after treatment
[28] = Rate 0.2500 kg/ha, preemergence, rated 3-4 weeks after treatment
[29] = Rate 0.5000 kg/ha, preemergence, rated 3-4 weeks after treatment

Structure (SMILES): COc1ccc(C)cc1-c1nsc2cc(F)c(-n3c(=O)cc(C(F)(F)F)n(C)c3=O)cc12 [Example 462, 2,4(1H,3H)-Pyrimidinedione, 3-[6-fluoro-3-(6-methoxy-m-tolyl)-1,2-benzisothiazol-5-yl]-1-methyl-6-(trifluoromethyl)-]
- SAGPY herbicidal rating (Sagittaria pygmaea, L.; [5]): 1.0
- SAGPY herbicidal rating (Sagittaria pygmaea, L.; [6]): 4.0
- SAGPY herbicidal rating (Sagittaria pygmaea, L.; [7]): 5.0
- SAGPY herbicidal rating (Sagittaria pygmaea, L.; [8]): 6.0
- ORYSAT herbicidal rating (rice tolerance) ([1]; 0.0320 kg/ha, rated three to four weeks after treatment): 5.0
- ORYSAT herbicidal rating (rice tolerance) ([1]; 0.0620 kg/ha, rated three to four weeks after treatment): 5.0
- ORYSAT herbicidal rating (rice tolerance) ([1]; 0.2500 kg/ha, rated three to four weeks after treatment): 6.0
- MOOVA herbicidal rating [2, 5]: 9.0
- MOOVA herbicidal rating [2, 6]: 9.0
- MOOVA herbicidal rating [2, 7]: 9.0
- MOOVA herbicidal rating [2, 8]: 9.0
- ECHORC herbicidal rating [3, 5]: 9.0
- ECHORC herbicidal rating [3, 6]: 9.0
- ECHORC herbicidal rating [3, 7]: 9.0
- ECHORC herbicidal rating [3, 8]: 9.0
- CYPIR herbicidal rating (Cyperus iria; [5]): 9.0
- CYPIR herbicidal rating (Cyperus iria; [6]): 9.0
- CYPIR herbicidal rating (Cyperus iria; [7]): 9.0
- CYPIR herbicidal rating (Cyperus iria; [8]): 9.0
- CYPSE herbicidal rating [4, 6]: 3.0

Structure (SMILES): Cn1c(C(F)(F)F)cc(=O)n(-c2ccc3snc(C=C(F)Br)c3c2)c1=O [Example 286, 2,4(1H,3H)-Pyrimidinedione, 3-[3-(2-bromo-2-fluorovinyl)-1,2-benzisothiazol-5-yl]-1-methyl-6-(trifluoromethyl)-]
- SAGPY herbicidal effect rating (Sagittaria pygmaea, L.; [9]): 0.0
- SAGPY herbicidal effect rating (Sagittaria pygmaea, L.; [10]): 0.0
- SAGPY herbicidal effect rating (Sagittaria pygmaea, L.; [11]): 0.0
- SAGPY herbicidal effect rating (Sagittaria pygmaea, L.; [12]): 0.0
- ORYSAT herbicidal effect rating [1, 13]: 0.0
- ORYSAT herbicidal effect rating [1, 14]: 0.0
- ORYSAT herbicidal effect rating [1, 15]: 1.0
- ORYSAT herbicidal effect rating [1, 16]: 2.0
- MOOVA herbicidal effect rating [2, 9]: 9.0
- MOOVA herbicidal effect rating [2, 10]: 9.0
- MOOVA herbicidal effect rating [2, 11]: 9.0
- MOOVA herbicidal effect rating [2, 12]: 9.0
- ECHORC herbicidal effect rating [3, 9]: 0.0
- ECHORC herbicidal effect rating [3, 10]: 0.0
- ECHORC herbicidal effect rating [3, 11]: 3.0
- ECHORC herbicidal effect rating [3, 12]: 8.0
- CYPIR herbicidal effect rating (Cyperus iria; [9]): 3.0
- CYPIR herbicidal effect rating (Cyperus iria; [10]): 7.0
- CYPIR herbicidal effect rating (Cyperus iria; [11]): 7.0
- CYPIR herbicidal effect rating (Cyperus iria; [12]): 9.0
- CYPSE herbicidal effect rating [4, 9]: 0.0
- CYPSE herbicidal effect rating [4, 10]: 0.0
- CYPSE herbicidal effect rating [4, 11]: 0.0
- CYPSE herbicidal effect rating [4, 12]: 0.0

Structure (SMILES): CNC(=O)OCc1nsc2ccc(-n3c(=O)cc(C(F)(F)F)n(C)c3=O)cc12 [Example 374, 2,4(1H,3H)-Pyrimidinedione, 3-[3-(hydroxymethyl)1,2-benzisothiazol-5-yl]-1-methyl-6-(trifluoromethyl)-, methylcarbamate (ester)]
- herbicidal effect rating, SAGPY (Sagittaria pygmaea, L.; [9]): 2.0
- herbicidal effect rating, SAGPY (Sagittaria pygmaea, L.; [10]): 3.0
- herbicidal effect rating, SAGPY (Sagittaria pygmaea, L.; [11]): 6.0
- herbicidal effect rating, SAGPY (Sagittaria pygmaea, L.; [12]): 9.0
- herbicidal effect rating ORYSAT [1, 13]: 4.0
- herbicidal effect rating ORYSAT [1, 14]: 4.0
- herbicidal effect rating ORYSAT [1, 15]: 6.0
- herbicidal effect rating ORYSAT [1, 16]: 7.0
- herbicidal effect rating, MOOVA [2, 9]: 9.0
- herbicidal effect rating, MOOVA [2, 10]: 9.0
- herbicidal effect rating, MOOVA [2, 11]: 9.0
- herbicidal effect rating, MOOVA [2, 12]: 9.0
- herbicidal effect rating, ECHORC [3, 9]: 3.0
- herbicidal effect rating, ECHORC [3, 10]: 3.0
- herbicidal effect rating, ECHORC [3, 11]: 4.0
- herbicidal effect rating, ECHORC [3, 12]: 6.0
- herbicidal effect rating, CYPIR (Cyperus iria; [9]): 6.0
- herbicidal effect rating, CYPIR (Cyperus iria; [10]): 9.0
- herbicidal effect rating, CYPIR (Cyperus iria; [11]): 9.0
- herbicidal effect rating, CYPIR (Cyperus iria; [12]): 9.0
- herbicidal effect rating, CYPSE [4, 9]: 0.0
- herbicidal effect rating, CYPSE [4, 10]: 0.0
- herbicidal effect rating, CYPSE [4, 11]: 0.0
- herbicidal effect rating, CYPSE [4, 12]: 5.0

Structure (SMILES): Cn1c(C(F)(F)F)cc(=O)n(-c2ccc3snc(C(=O)Nc4cc(C(C)(C)C)on4)c3c2)c1=O [Example 331, 1,2-Benzisothiazole-3-carboxamide, N-(5-tert-butylisoxazol-3-yl)-5-[3,6-dihydro-3-methyl-2,6-dioxo-4-(trifluoromethyl)-1(2H)-pyrimidinyl]-]
- herbicidal effect rating, SAGPY (Sagittaria pygmaea, L.; [17]): 0.0
- herbicidal effect rating, SAGPY (Sagittaria pygmaea, L.; [18]): 0.0
- herbicidal effect rating, SAGPY (Sagittaria pygmaea, L.; [19]): 0.0
- herbicidal effect rating, SAGPY (Sagittaria pygmaea, L.; [20]): 0.0
- herbicidal effect rating ORYSAT [1, 13]: 0.0
- herbicidal effect rating ORYSAT [1, 14]: 0.0
- herbicidal effect rating ORYSAT [1, 15]: 0.0
- herbicidal effect rating ORYSAT [1, 16]: 1.0
- herbicidal effect rating, MOOVA [2, 17]: 9.0
- herbicidal effect rating, MOOVA [2, 18]: 9.0
- herbicidal effect rating, MOOVA [2, 19]: 9.0
- herbicidal effect rating, MOOVA [2, 20]: 9.0
- herbicidal effect rating, ECHORC [3, 17]: 0.0
- herbicidal effect rating, ECHORC [3, 18]: 2.0
- herbicidal effect rating, ECHORC [3, 19]: 4.0
- herbicidal effect rating, ECHORC [3, 20]: 8.0
- herbicidal effect rating, CYPIR (Cyperus iria; [17]): 0.0
- herbicidal effect rating, CYPIR (Cyperus iria; [18]): 0.0
- herbicidal effect rating, CYPIR (Cyperus iria; [19]): 5.0
- herbicidal effect rating, CYPIR (Cyperus iria; [20]): 9.0
- herbicidal effect rating, CYPSE [4, 17]: 0.0
- herbicidal effect rating, CYPSE [4, 18]: 0.0
- herbicidal effect rating, CYPSE [4, 19]: 0.0
- herbicidal effect rating, CYPSE [4, 20]: 0.0

Structure (SMILES): C#CCOC(=O)COc1cc2c(cc1-c1nsc3ccc(-n4c(=O)cc(C(F)(F)F)n(C)c4=O)cc13)CCC2 [Example 436, Acetic acid, {{6-{5-[3,6-dihydro-3-methyl-2,6-dioxo-4-(trifluoromethyl)-1(2H)-pyrimidinyl]-1,2-benzisothiazol-3-yl}-5-indanyl}oxy}-, 2-propynyl ester]
- SAGPY (Sagittaria pygmaea, L.; [21]): 0.0
- SAGPY (Sagittaria pygmaea, L.; [22]): 0.0
- SAGPY (Sagittaria pygmaea, L.; [23]): 2.0
- SAGPY (Sagittaria pygmaea, L.; [24]): 3.0
- ORYSAT ([1]; 0.0320 kg/ha): 3.0
- ORYSAT ([1]; 0.0620 kg/ha): 5.0
- ORYSAT ([1]; 0.1250 kg/ha): 7.0
- ORYSAT ([1]; 0.2500 kg/ha): 6.0
- MOOVA [2, 21]: 9.0
- MOOVA [2, 22]: 9.0
- MOOVA [2, 23]: 9.0
- MOOVA [2, 24]: 9.0
- ECHORC [3, 21]: 6.0
- ECHORC [3, 22]: 9.0
- ECHORC [3, 23]: 9.0
- ECHORC [3, 24]: 9.0
- CYPIR (Cyperus iria; [21]): 0.0
- CYPIR (Cyperus iria; [22]): 2.0
- CYPIR (Cyperus iria; [23]): 7.0
- CYPIR (Cyperus iria; [24]): 7.0
- CYPSE [4, 21]: 4.0
- CYPSE [4, 22]: 6.0
- CYPSE [4, 24]: 6.0

Structure (SMILES): CCCS(=O)(=O)NC(=O)COc1ccc(C)cc1-c1nsc2ccc(-n3c(=O)cc(C(F)(F)F)n(C)c3=O)cc12 [Example 552, Acetamide, 2-{{2-{5-[3,6-dihydro-3-methyl-2,6-dioxo-4-(trifluoromethyl)-1(2H)-pyrimidinyl]-1,2-benzisothiazol-3-yl}-p-tolyl}oxy}-N-(propylsulfonyl)-]
- herbicidal effect rating, SAGPY (Sagittaria pygmaea, L.; [25]): 0.0
- herbicidal effect rating, SAGPY (Sagittaria pygmaea, L.; [26]): 0.0
- herbicidal effect rating, SAGPY (Sagittaria pygmaea, L.; [27]): 0.0
- herbicidal effect rating, SAGPY (Sagittaria pygmaea, L.; [28]): 0.0
- herbicidal effect rating, SAGPY (Sagittaria pygmaea, L.; [29]): 5.0
- herbicidal effect rating ORYSAT ([1]; Rate 0.0320 kg/ha, rated 3-4 weeks after treatment): 4.0
- herbicidal effect rating ORYSAT ([1]; Rate 0.0620 kg/ha, rated 3-4 weeks after treatment): 6.0
- herbicidal effect rating ORYSAT ([1]; Rate 0.1250 kg/ha, rated 3-4 weeks after treatment): 6.0
- herbicidal effect rating ORYSAT ([1]; Rate 0.2500 kg/ha, rated 3-4 weeks after treatment): 7.0
- herbicidal effect rating ORYSAT ([1]; Rate 0.5000 kg/ha, rated 3-4 weeks after treatment): 4.0
- herbicidal effect rating, MOOVA [2, 25]: 6.0
- herbicidal effect rating, MOOVA [2, 26]: 8.0
- herbicidal effect rating, MOOVA [2, 27]: 9.0
- herbicidal effect rating, MOOVA [2, 28]: 9.0
- herbicidal effect rating, MOOVA [2, 29]: 9.0
- herbicidal effect rating, ECHORC [3, 25]: 2.6
- herbicidal effect rating, ECHORC [3, 26]: 3.7
- herbicidal effect rating, ECHORC [3, 27]: 4.7
- herbicidal effect rating, ECHORC [3, 28]: 9.0
- herbicidal effect rating, ECHORC [3, 29]: 9.0
- herbicidal effect rating, CYPIR (Cyperus iria; [25]): 6.0
- herbicidal effect rating, CYPIR (Cyperus iria; [26]): 8.0
- herbicidal effect rating, CYPIR (Cyperus iria; [27]): 7.0
- herbicidal effect rating, CYPIR (Cyperus iria; [28]): 9.0
- herbicidal effect rating, CYPIR (Cyperus iria; [29]): 9.0
- herbicidal effect rating, CYPSE [4, 25]: 0.0
- herbicidal effect rating, CYPSE [4, 27]: 4.0
- herbicidal effect rating, CYPSE [4, 28]: 9.0
- herbicidal effect rating, CYPSE [4, 29]: 9.0
